Experimental data: the NIST ThermoML archive (doi:10.1016/j.jct.2008.12.011)

Assay: cn = amount concentration of the nth substance listed, in mol/dm3
Details: 101.3 kPa, Liquid, Vibrating tube method

[Cl-].[K+] [potassium chloride] + O
mass density [kg/m3]
Details	c1 = 1	c1 = 1.5	c1 = 2	c1 = 2.5	c1 = 3	c1 = 3.5	c1 = 4
298.15 K	–	1059.97	–	1104.2	1124.93	1145.56	–
303.15 K	1041.13	1058.12	1080.38	1102.19	1122.78	1143.35	1166.67
308.15 K	1038.43	1055.31	1077.43	1099.06	1119.56	1140.06	1163.34
313.15 K	1035.01	1051.75	1073.77	1095.37	1115.79	1136.18	1159.35
318.15 K	1032.69	1049.38	1071.35	1092.9	1113.28	1133.63	1156.76
323.15 K	1030.24	1047.03	1068.81	1090.34	1110.71	1131.02	1154.1

CC(=O)[O-].[K+] [potassium ethanoate] + O
mass density [kg/m3]
Details	c1 = 1	c1 = 1.5	c1 = 2	c1 = 2.5	c1 = 3	c1 = 3.5	c1 = 4
298.15 K	–	1066.61	–	1108.88	1127.48	1148.72	–
303.15 K	1041.9	1064.76	1086.01	1106.89	1125.37	1146.49	1168.58
308.15 K	1039.27	1062.94	1083.09	1103.93	1122.15	1143.14	1165.13
313.15 K	1035.88	1059.39	1079.44	1100.19	1118.3	1139.19	1160.96
318.15 K	1033.57	1057.02	1077.01	1097.66	1115.71	1136.58	1158.26
323.15 K	1030.82	1054.37	1074.47	1095.05	1113.05	1133.87	1155.47

[Cl-].[Na+] [sodium chloride] + O
mass density [kg/m3]
Details	c1 = 1	c1 = 1.5	c1 = 2	c1 = 2.5	c1 = 3	c1 = 3.5	c1 = 4
298.15 K	–	1053.3	–	1088.97	1110.22	1124.82	–
303.15 K	1035.38	1055.01	1073.49	1086.83	1107.87	1122.4	1146.3
308.15 K	–	1053.06	1070.4	1083.71	1104.62	1118.95	1142.7
313.15 K	1029.13	1050.21	1066.6	1079.83	1100.67	1114.84	1138.45
318.15 K	1026.75	1046.65	1064.11	1077.28	1098.06	1112.16	1135.7
323.15 K	1023.15	1044.21	1061.5	1074.62	1095.35	1109.38	1132.89
